Data from patent publication US7932270B2 (Cytokinetics, Inc., priority 2006, dated 2011).

Molecular target: T1, chicken gizzard smooth muscle myosin subfragment-1 chemically crosslinked to cardiac or skeletal actin (Gallus gallus, UniProt P10587)
T1 construct: chicken gizzard smooth muscle myosin subfragment-1; from tissue; host or cells: chicken gizzard
Assay: Smooth muscle myosin ATPase dose response assay (pyruvate kinase/horseradish peroxidase/pyruvate oxidase-coupled, amplex red fluorescence)
Format: biochemical
Details: read-out: IC50 Arithmetic Mean
In short: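 Amplex red fluorescence (480 nm excitation, 615 nm emission) tracked ATP hydrolysis by smooth muscle S1 crosslinked to actin with carbodiimide/N-hydroxysuccinimide. Reactions contained 0.15 mM ATP and 100 mM KCl at pH 7.00, 22° C. IC50 came from a four-parameter logistic fit.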

T1 sequence (P02607 2-151): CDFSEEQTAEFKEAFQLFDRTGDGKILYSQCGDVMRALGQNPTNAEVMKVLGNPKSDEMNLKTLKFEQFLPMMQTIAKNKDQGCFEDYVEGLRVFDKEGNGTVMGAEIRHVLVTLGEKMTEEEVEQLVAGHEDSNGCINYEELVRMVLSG
T1 sequence (P10587 84-789): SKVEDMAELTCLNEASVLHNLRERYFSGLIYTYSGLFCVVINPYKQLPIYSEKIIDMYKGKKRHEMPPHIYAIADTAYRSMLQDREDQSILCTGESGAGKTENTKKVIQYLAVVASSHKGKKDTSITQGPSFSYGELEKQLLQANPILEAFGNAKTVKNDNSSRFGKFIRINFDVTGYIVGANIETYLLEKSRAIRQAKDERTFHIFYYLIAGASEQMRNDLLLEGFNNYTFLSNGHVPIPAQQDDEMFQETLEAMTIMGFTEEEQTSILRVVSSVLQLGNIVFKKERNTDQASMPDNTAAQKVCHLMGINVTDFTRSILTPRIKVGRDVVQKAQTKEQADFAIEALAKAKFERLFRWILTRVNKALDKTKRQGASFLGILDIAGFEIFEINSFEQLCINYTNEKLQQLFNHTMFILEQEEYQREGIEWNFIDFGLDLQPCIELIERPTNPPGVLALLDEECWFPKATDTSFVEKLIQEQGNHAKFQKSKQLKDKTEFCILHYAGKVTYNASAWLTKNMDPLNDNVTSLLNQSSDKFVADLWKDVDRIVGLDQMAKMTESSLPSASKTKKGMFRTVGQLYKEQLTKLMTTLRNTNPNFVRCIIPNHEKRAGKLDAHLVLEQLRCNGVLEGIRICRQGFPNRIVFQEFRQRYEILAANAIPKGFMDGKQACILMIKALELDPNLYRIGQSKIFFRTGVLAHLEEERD

Q: For `COCCCNC(=O)c1ccc(-c2ccccc2C#N)nc1NCCc1cccc(F)c1` [(6-(2-cyanophenyl)-2-{[2-(3-fluorophenyl)ethyl]amino}(3-pyridyl))-N-(3-methoxypropyl)carboxamide], which IC50 is on record?
A: The IC50 was 396 nM.

Q: For `NCC(=O)N1CCC[C@@H]1CNC(=O)c1cc(F)c(-c2cn[nH]c2)nc1NCCc1cccc(F)c1` [N-{[(2R)-1-(2-aminoacetyl)pyrrolidin-2-yl]methyl}(5-fluoro-2-{[2-(3-fluorophenyl)ethyl]amino}-6-pyrazol-4-yl(3-pyridyl))carboxamide], which IC50 is on record?
A: Its IC50 is 61 nM.

Q: How did the IC50 turn out when `Cn1cc(-c2ccc(C(=O)NC[C@H]3CCCN3C(=O)CCN)c(NCCc3cccc(F)c3)n2)cn1` [N-{[(2R)-1-(3-aminopropanoyl)pyrrolidin-2-yl]methyl}(2-{[2-(3-fluorophenyl)ethyl]amino}-6-(1-methylpyrazol-4-yl)(3-pyridyl))carboxamide] was run?
A: The IC50 was 587 nM.

Q: How did the IC50 turn out when `CC(C)(C)OC(=O)NCCn1ccc(CNC(=O)c2ccc(-c3cc[nH]n3)nc2NCCc2cccc(F)c2)n1` [N-[(1-{2-[(tert-butoxy)carbonylamino]ethyl}pyrazol-3-yl)methyl](2-{[2-(3-fluorophenyl)ethyl]amino}-6-pyrazol-3-yl(3-pyridyl))carboxamide] was run?
A: The IC50 was 12000 nM.

Q: Which IC50 does the source give for `C[C@H](CNC(=O)c1cc(F)c(-c2cnn(C)c2)nc1NCCc1cccc(F)c1)NC(=O)[C@H](CO)NC(=O)OC(C)(C)C` here?
A: Its IC50 is 2260 nM.

Q: For `CNC(=O)c1ccc(-c2ccccc2)nc1NCCc1cccc(C)c1` [N-methyl(2-{[2-(3-methylphenyl)ethyl]amino}-6-phenyl(3-pyridyl))carboxamide], which IC50 is on record?
A: The IC50 was 6750 nM.

Q: How did the IC50 turn out when `O=Cc1ccc(-c2ccc(C(=O)NCc3cccnc3)c(NCCc3cccc(F)c3)n2)s1` [(2-{[2-(3-fluorophenyl)ethyl]amino}-6-(5-formyl(2-thienyl))(3-pyridyl))-N-(3-pyridylmethyl)carboxamide] was run?
A: The IC50 was 52 nM.

Q: `CC(C)(C)OC(=O)NCCCN1C(=O)CC[C@@H]1CNC(=O)c1cc(C#N)c(-c2cn[nH]c2)nc1NCCc1cccc(F)c1` [N-[((2R)-1-{3-[(tert-butoxy)carbonylamino]propyl}-5-oxopyrrolidin-2-yl)methyl](5-cyano-2-{[2-(3-fluorophenyl)ethyl]amino}-6-pyrazol-4-yl(3-pyridyl))carboxamide] was tested. Which IC50 did it give?
A: The IC50 was 3510 nM.

Q: How did the IC50 turn out when `CNC(=O)CNC(=O)c1cc(F)c(-c2cn[nH]c2)nc1NCCc1cccc(F)c1` [2-[(5-fluoro-2-{[2-(3-fluorophenyl)ethyl]amino}-6-pyrazol-4-yl(3-pyridyl))carbonylamino]-N-methylacetamide] was run?
A: The IC50 was 65 nM.

Q: How did the IC50 turn out when `N#Cc1ccccc1-c1ccc(C(=O)NCc2cccc(C(F)(F)F)n2)c(NCCc2cccc(F)c2)n1` [(6-(2-cyanophenyl)-2-{[2-(3-fluorophenyl)ethyl]amino}(3-pyridyl))-N-{[6-(trifluoromethyl)(2-pyridyl)]methyl}carboxamide] was run?
A: The IC50 was 604 nM.

Q: How did the IC50 turn out when `N#Cc1ccccc1-c1ccc(C(=O)NCC2CCN(C(=O)CCN)C2)c(NCCc2cccc(F)c2)n1` (stereo not drawn) [N-{[1-(3-aminopropanoyl)pyrrolidin-3-yl]methyl}(6-(2-cyanophenyl)-2-{[2-(3-fluorophenyl)ethyl]amino}(3-pyridyl))carboxamide] was run?
A: Its IC50 is 270 nM.

Q: `N#Cc1ccccc1-c1ccc(C(=O)NCc2cccnc2)c(NCCc2ccccc2Cl)n1` [(2-{[2-(2-chlorophenyl)ethyl]amino}-6-(2-cyanophenyl)(3-pyridyl))-N-(3-pyridylmethyl)carboxamide] was tested. Which IC50 did it give?
A: Its IC50 is 28 nM.

Q: Which IC50 does the source give for `Cn1cnc(CCNc2nc(-c3ccccc3)ccc2C(=O)NCc2cccnc2)c1` [(2-{[2-(1-methylimidazol-4-yl)ethyl]amino}-6-phenyl(3-pyridyl))-N-(3-pyridylmethyl)carboxamide] here?
A: The IC50 was 32200 nM.

Q: Which IC50 does the source give for `N#Cc1ccccc1-c1ccc(C(=O)NC[C@H]2CCCN2C(=O)CCN)c(NCCc2cccc(F)c2)n1` [N-{[(2R)-1-(3-aminopropanoyl)pyrrolidin-2-yl]methyl}(6-(2-cyanophenyl)-2-{[2-(3-fluorophenyl)ethyl]amino}(3-pyridyl))carboxamide] here?
A: Its IC50 is 47 nM.

Q: For `Cn1nccc1CNC(=O)c1ccc(-c2ccccc2)nc1NCCc1ccccn1` [N-[(1-methylpyrazol-5-yl)methyl]{6-phenyl-2-[(2-(2-pyridyl)ethyl)amino](3-pyridyl)}carboxamide], which IC50 is on record?
A: The IC50 was 1300 nM.

Q: With `CN(CCNC(=O)c1ccc(-c2ccccc2C#N)nc1NCCc1cccc(F)c1)C(=O)CCCNC(=O)OC(C)(C)C` [4-[(tert-butoxy)carbonylamino]-N-{2-[(6-(2-cyanophenyl)-2-{[2-(3-fluorophenyl)ethyl]amino}(3-pyridyl))carbonylamino]ethyl}-N-methylbutanamide] as the compound, how does the IC50 read?
A: Its IC50 is 3880 nM.

Q: Which IC50 does the source give for `N#Cc1ccccc1-c1ccc(C(=O)NC[C@H]2CCC(=O)N2CCCCCN)c(NCCc2cccc(F)c2)n1` [N-{[(2R)-1-(5-aminopentyl)-5-oxopyrrolidin-2-yl]methyl}(6-(2-cyanophenyl)-2-{[2-(3-fluorophenyl)ethyl]amino}(3-pyridyl))carboxamide] here?
A: The IC50 was 39 nM.

Q: With `CC[C@@H](CO)CNC(=O)c1cc(F)c(-c2cn[nH]c2)nc1NCCc1cccc(F)c1` [N-((2R)-2-ethyl-3-hydroxypropyl)(5-fluoro-2-{[2-(3-fluorophenyl)ethyl]amino}-6-pyrazol-4-yl(3-pyridyl))carboxamide] as the compound, how does the IC50 read?
A: Its IC50 is 52 nM.

Q: How did the IC50 turn out when `Cn1cc(-c2nc(NCCc3cccc(F)c3)c(C(=O)NCc3cccnc3)cc2F)cn1` [(5-fluoro-2-{[2-(3-fluorophenyl)ethyl]amino}-6-(1-methylpyrazol-4-yl)(3-pyridyl))-N-(3-pyridylmethyl)carboxamide] was run?
A: Its IC50 is 12 nM.

Q: How did the IC50 turn out when `Cc1ccccc1CCNc1nc(-c2ccccc2C#N)ccc1C(=O)NCc1cccnc1` [(6-(2-cyanophenyl)-2-{[2-(2-methylphenyl)ethyl]amino}(3-pyridyl))-N-(3-pyridylmethyl)carboxamide] was run?
A: The IC50 was 76 nM.

Q: Which IC50 does the source give for `CC(C)(C)OC(=O)NCC(=O)N1CCC[C@@H]1CNC(=O)c1cc(F)c(-c2cn[nH]c2)nc1NCCc1cccc(F)c1` [N-[((2R)-1-{2-[(tert-butoxy)carbonylamino]acetyl}pyrrolidin-2-yl)methyl](5-fluoro-2-{[2-(3-fluorophenyl)ethyl]amino}-6-pyrazol-4-yl(3-pyridyl))carboxamide] here?
A: The IC50 was 1080 nM.

Q: `COC(=O)N1CC[C@@H]1CNC(=O)c1ccc(-c2cn[nH]c2)nc1NCCc1cccc(F)c1` [methyl (2R)-2-{[(2-{[2-(3-fluorophenyl)ethyl]amino}-6-pyrazol-4-yl(3-pyridyl))carbonylamino]methyl}azetidinecarboxylate] was tested. Which IC50 did it give?
A: Its IC50 is 245 nM.

Q: `CC(C)(CNC(=O)c1ccc(-c2ccccc2C#N)nc1NCCc1cccc(F)c1)NC(=O)CNC(=O)OC(C)(C)C` was tested. Which IC50 did it give?
A: The IC50 was 9570 nM.

Q: For `O=C(NCc1cccnc1)c1ccc(-c2ccccc2)nc1NCCN1CCCC1=O` [(2-{[2-(2-oxopyrrolidinyl)ethyl]amino}-6-phenyl(3-pyridyl))-N-(3-pyridylmethyl)carboxamide], which IC50 is on record?
A: The IC50 was 10600 nM.

Q: `N#Cc1ccccc1-c1ccc(C(=O)NC[C@H]2CCCN2C(=O)CO)c(NCCc2cccc(F)c2)n1` [N-{[(2R)-1-(2-hydroxyacetyl)pyrrolidin-2-yl]methyl}(6-(2-cyanophenyl)-2-{[2-(3-fluorophenyl)ethyl]amino}(3-pyridyl))carboxamide] was tested. Which IC50 did it give?
A: The IC50 was 116 nM.

Q: How did the IC50 turn out when `O=C(NCc1cccnc1)c1ccc(-c2ccccn2)nc1NCCc1ccccn1` [N-(3-pyridylmethyl){6-(2-pyridyl)-2-[(2-(2-pyridyl)ethyl)amino](3-pyridyl)}carboxamide] was run?
A: The IC50 was 5380 nM.

Q: For `N#Cc1ccccc1-c1ccc(C(=O)NC[C@H]2CNCC(=O)N2CCCN)c(NCCc2cccc(F)c2)n1` [N-{[(2R)-1-(3-aminopropyl)-6-oxopiperazin-2-yl]methyl}(6-(2-cyanophenyl)-2-{[2-(3-fluorophenyl)ethyl]amino}(3-pyridyl))carboxamide], which IC50 is on record?
A: The IC50 was 318 nM.

Q: `Cn1cc(-c2nc(NCCc3cccc(F)c3)c(C(=O)NC[C@H]3CCCN3)cc2F)cn1` [N-[((2R)pyrrolidin-2-yl)methyl](5-fluoro-2-{[2-(3-fluorophenyl)ethyl]amino}-6-(1-methylpyrazol-4-yl)(3-pyridyl))carboxamide] was tested. Which IC50 did it give?
A: The IC50 was 275 nM.

Q: How did the IC50 turn out when `COC(=O)CNC(=O)c1ccc(-c2ccccc2C#N)nc1NCCc1cccc(F)c1` [methyl 2-[(6-(2-cyanophenyl)-2-{[2-(3-fluorophenyl)ethyl]amino}-3-pyridyl)carbonylamino]acetate] was run?
A: The IC50 was 101 nM.

Q: Which IC50 does the source give for `N#Cc1ccccc1-c1ccc(C(=O)NCC(=O)NCCC(=O)O)c(NCCc2cccc(F)c2)n1` [3-{2-[(6-(2-cyanophenyl)-2-{[2-(3-fluorophenyl)ethyl]amino}-3-pyridyl)carbonylamino]acetylamino}propanoic acid] here?
A: The IC50 was 9670 nM.

Q: How did the IC50 turn out when `CNCCNC(=O)c1ccc(-c2ccccc2C#N)nc1NCCc1cccc(F)c1` [(6-(2-cyanophenyl)-2-{[2-(3-fluorophenyl)ethyl]amino}(3-pyridyl))-N-[2-(methylamino)ethyl]carboxamide] was run?
A: The IC50 was 4460 nM.

Q: How did the IC50 turn out when `C[C@@H](CNC(=O)c1ccc(-c2ccccc2C#N)nc1NCCc1cccc(F)c1)NC(=O)CCCNC(=O)OC(C)(C)C` was run?
A: The IC50 was 2020 nM.

Q: With `CN1CCN(CCCNC(=O)c2ccc(-c3ccccc3C#N)nc2NCCc2cccc(F)c2)CC1` [(6-(2-cyanophenyl)-2-{[2-(3-fluorophenyl)ethyl]amino}(3-pyridyl))-N-[3-(4-methylpiperazinyl)propyl]carboxamide] as the compound, how does the IC50 read?
A: Its IC50 is 3060 nM.

Q: `N#Cc1ccccc1-c1ccc(C(=O)NC[C@H]2CCCC(=O)N2CCCCN)c(NCCc2cccc(F)c2)n1` [N-{[(2R)-1-(4-aminobutyl)-6-oxo(2-piperidyl)]methyl}(6-(2-cyanophenyl)-2-{[2-(3-fluorophenyl)ethyl]amino}(3-pyridyl))carboxamide] was tested. Which IC50 did it give?
A: The IC50 was 32 nM.

Q: Which IC50 does the source give for `O=C(NCc1cccnc1)c1ccc(-c2ccccc2)nc1NCCCn1ccnc1` [{2-[(3-imidazolylpropyl)amino]-6-phenyl(3-pyridyl)}-N-(3-pyridylmethyl)carboxamide] here?
A: Its IC50 is 30300 nM.

Q: For `N#Cc1ccccc1-c1ccc(C(=O)NCCN2CCNCC2)c(NCCc2cccc(F)c2)n1` [(6-(2-cyanophenyl)-2-{[2-(3-fluorophenyl)ethyl]amino}(3-pyridyl))-N-(2-piperazinylethyl)carboxamide], which IC50 is on record?
A: The IC50 was 16200 nM.
